Experimental data taken from PubChem BioAssay AID504765 (Sanford-Burnham Center for Chemical Genomics, 2011).
Activity calls are given as the source filed them. How the calls were made is not given here.

Target: glucose-6-phosphate dehydrogenase-6-phosphogluconolactonase (Plasmodium falciparum 3D7)
Experiment: concentration-dependent PfGluPho enzyme inhibition – biochemical, fluorescence intensity, dose response (AID 504765)
Conditions: Recombinant PfG6PD enzyme, fluorescence intensity (NADPH)

Compound | IC50
NC(=O)N/N=C/c1ccc(-n2nncc2-c2ccc(Cl)cc2)cc1 | 11.8 µM
C/C(Cn1nnc([N+](=O)[O-])n1)=N\NC(=O)c1ccccc1O | 7.39 µM
O=C(Cn1sc2ccccc2c1=O)NC12CC3CC(CC(C3)C1)C2 | 1.79 µM
O=C(Nc1ccc(N2CCOCC2)c(Cl)c1)c1ccc(Cl)cc1 | 4.87 µM
COC(=O)[C@H](C)NC(=O)c1cc2c(cn1)[nH]c1ccccc12 | inactive
Cn1c(=O)[nH]c(=O)c2c1[nH]c(=S)n2CCCc1ccccc1 | inactive
O=C1C=C(NCCc2cc(Br)c(O)c(Br)c2)C(=O)c2ncccc21 | 1.35 µM
CN1CCc2cc(O)cc3c2[C@H]1Cc1ccc(O)c(O)c1-3 | 15 µM
COc1ccc2nc3cc(Cl)ccc3c(Nc3ccc(O)c(CN4CCN(C)CC4)c3)c2c1 | inactive
O=[N+]([O-])c1c(NCCCO)cc(Sc2nc3ccccc3s2)c2nonc12 | 12.5 µM
Cn1c2ccccc2c2ccc3c(c21)C(=O)C=CC3=O | > 80 µM (inactive)
O=C(CNc1ccc2c(c1)OCO2)N/N=C\c1cn(Cc2ccccc2)c2ccccc12 | inactive
CC1N(C)c2cccc3cccc(c23)N1C | 11.2 µM
CCc1c(C(=O)Nc2ccccc2)c(C)[nH]c(=S)c1C#N | inactive
CCOc1ccc(Cl)cc1/C=N/NC(N)=O | 12.4 µM
COc1cc(/C=C2\CC/C(=C\c3cc(OC)c(O)c(OC)c3)C2=O)cc(OC)c1O | 17.1 µM
O=C(CCc1ccc(O)c(O)c1)N/N=C/c1cc2c(cc1[N+](=O)[O-])OCO2 | 14 µM
[O-]/[N+](=C\c1ccncc1)c1ccccc1 | 9.54 µM
Cc1ccc(C)c(-n2sc3ccc(F)cc3c2=O)c1 | 1.24 µM
Cc1ccc(NC(=O)c2cc(C)n(-c3ccccc3)c2C)cc1 | 14.1 µM
N#Cc1ccc2c(=O)n(-c3ccccc3)sc2c1 | 3.86 µM
CC(C)c1nnc(NC(=O)c2cccc(-n3cnnn3)c2)s1 | 5.55 µM
Cn1cc(S(=O)(=O)CC(=O)N2CCc3ccccc32)c2ccccc21 | inactive

Compound | IC50
CCN1CCCC1CNC(=O)c1ccc2c(c1)NC(=O)/C(=C\c1ccccc1Cl)S2 (centres undefined) | 3.08 µM
COc1cc(NCCCn2ccc(NC(=O)OCc3ccccc3)nc2=O)cc(OC)c1OC | 17.6 µM
COc1cccc(-c2c(C(=O)N/N=C/c3ccc(C)o3)nnn2-c2nonc2N)c1 | 13.2 µM
Cc1c(N=C2C=C(Br)C(=O)C(Br)=C2)c(=O)n(-c2ccccc2)n1C | 7.32 µM
CCOC(=O)c1ccc(-n2c(N)c(C(=O)NCC3CCCO3)sc2=S)cc1 (centres undefined) | inactive
Cc1ccc(-c2csc(NC(=O)c3ccc(Br)cc3)c2C(=O)O)cc1 | 6.25 µM
Cc1cc(C)c2c(=N)c3ccccc3n(CCCCCCCCn3c4ccccc4c(=N)c4c(C)cc(C)nc43)c2n1 | 10.1 µM
CC(C)(C)c1ccc(O)c(O)c1 | inactive
Nc1ccc2c3c(cccc13)-c1ccccc1-2 | inactive
O=C(Nc1nnc(S(=O)(=O)N2CCOCC2)s1)c1cccc(Br)c1 | 5.58 µM
O=c1c2ccccc2sn1-c1ccccc1 | 1.15 µM
Cc1ccsc1/C=N\NC(=O)CC(=O)NCc1ccccc1 | 6.41 µM
CN(C)c1ncc(C2=C(Cl)C(=O)C(N3CCCC3)=C(Cl)C2=O)s1 | 3.32 µM
CC(C)(C)NC(=O)COc1ccc(CNc2ccc3[nH]c(=O)[nH]c3c2)cc1 | 11.7 µM
O=S(=O)(NCc1csc(-c2ccccc2)n1)c1ccc(Cl)s1 | 6.28 µM
CCC(C)N(CCNC(=O)c1ccc2c(c1)NC(=O)c1ccccc1S2)C1CCCCC1 (centres undefined) | 6.48 µM
O=c1ccsn1Cc1ccccc1 | 2.29 µM
C/C(Cn1nnc([N+](=O)[O-])n1)=N\NC(=O)c1ccc(O)cc1 | 14.6 µM
Cc1ccccc1OCC(=O)NCC(=O)OCC(=O)c1ccc([N+](=O)[O-])cc1 | 17.2 µM
COc1ccc(/C=C/c2nc3ccccc3n2Cc2ccc(OC)c(OC)c2)cc1 | inactive
COCCn1nnnc1C(c1cc2cc(OC)c(OC)cc2[nH]c1=O)N1CCN(c2ccc(O)cc2)CC1 (centres undefined) | inactive
CCCNC(=O)Cn1sc2nc(C)cc(C)c2c1=O | 3.13 µM
O=c1c2ccccc2[se]n1-c1ccccc1 | 9.66 µM

Compound | IC50
COc1ccc(CCn2c(NN)nc3c2c(=O)[nH]c(=O)n3C)cc1 | 7.35 µM
COC(=O)CCC(=O)OC1(C)C(=O)C2=CN(c3ccc(OC)cc3)C(c3ccc(OC)cc3)=CC2=C(Br)C1=O (centres undefined) | 3.09 µM
Cc1ccc(-n2sc3ccccc3c2=O)cc1 | 8.63 µM
Clc1ccc2nc(-c3ccc4c(c3)OCO4)cn2c1 | inactive
O=[N+]([O-])c1ccc(Sc2cccc3cccnc23)c2cccnc12 | 16.5 µM
Cc1ccc(S(=O)(=O)NNc2ccccc2)cc1 | inactive
Cc1ccc(S(=O)c2ccc([N+](=O)[O-])c3nonc23)cc1 (centres undefined) | 8.19 µM
COc1c(O)c(O)c2oc(-c3ccccc3)cc(=O)c2c1OC | 10.6 µM
c1ccc(SSc2ccccn2)nc1 | 9.82 µM
CC(C)Nc1ccc(Nc2ccccc2)cc1 | 12.1 µM
COc1ccc(S(=O)(=O)Nc2cc(SCC(=O)O)c(O)c3ccccc23)cc1 | 2.03 µM
c1cncc(CNc2ccc3c(c2)OCO3)c1 | 13.9 µM
O=C(Nc1nnc(S(=O)(=O)N2CCCC2)s1)c1cccc([N+](=O)[O-])c1 | 4.17 µM
Nc1cc(N)c(OCC(F)(F)F)cc1OCC(F)(F)F | 1.61 µM
CC(=O)Nc1cc2c(cc1[N+](=O)[O-])-c1ccccc1C2O (centres undefined) | 20 µM
O=c1c2ccccc2sn1-c1nccs1 | 1.69 µM
CCOC(=O)c1c(OCC)[nH]c2c1cc(O)c1ccccc12 | inactive
O=C(Cc1ccccc1)NCC(=O)OCC(=O)c1ccc([N+](=O)[O-])cc1 | 10.6 µM
O=C1C(c2cc(=O)c3ccccc3[nH]2)=C(O)c2ccccc21 | 8.25 µM
COc1cc(SSc2cc(OC)cc([N+](=O)[O-])c2N)c(N)c([N+](=O)[O-])c1 | 4.2 µM
O=C(Nc1ccc([N+](=O)[O-])cc1Cl)c1cc(Cl)ccc1O | 13.7 µM
S=c1ncc2[nH]c(=S)[nH]c2[nH]1 | 4.41 µM
Cn1c(-c2sccc2OCc2cccc(C(F)(F)F)c2)n[nH]c1=S | inactive

Compound | IC50
COCc1cc(=O)n2[nH]c(C(C)(C)C)cc2n1 | 14.1 µM
Cc1ccc(-c2c(C(=O)N/N=C/c3ccc(C)o3)nnn2-c2nonc2N)cc1 | 1.43 µM
CCc1ccccc1N1CSC2=C(C#N)C(c3ccccc3F)CC(=O)N2C1 (centres undefined) | 9.2 µM
CC(=O)Nc1ccc(S(=O)(=O)/N=C2\C(=O)c3ccccc3C([O-])=C2n2cc[n+](-c3ccccn3)c2)cc1 | 12.9 µM
CN1CCN(C(=S)c2ccc(Br)cc2)CC1 | inactive
O=[N+]([O-])c1ccc(N/N=C/c2ccc(O)c(O)c2O)c(S(=O)(=O)N2CCOCC2)c1 | 8.74 µM
COc1ccc(NC(C)C(=O)N/N=C/c2cc(Br)ccc2OC)cc1 (centres undefined) | 8.77 µM
Cc1ccc(Cl)cc1NC1=C/C(=N\S(=O)(=O)c2cccs2)c2ccccc2C1=O | inactive
Cc1cc(C)c(S(=O)(=O)/N=C2/C=C(SCC(=O)O)C(=O)c3ccccc32)cc1C | 2.41 µM
Cc1ccc(NC(=O)Cn2sc3ccccc3c2=O)cc1 | 4.24 µM
CC1(OC(=O)C2CCCC2)C(=O)C=C2C=C(c3ccsc3)N(CC3CC3)C=C2C1=O (centres undefined) | 7.8 µM
CCN(CC)C(=O)c1c(C)[nH]c(=S)c(C#N)c1-c1ccco1 | inactive
CCN(CC)c1nc(N)nc(NS(=O)(=O)c2ccc(Cl)cc2)n1 | 6.15 µM
O=S(=O)(Nc1ccccc1F)c1cccc(NC(=S)NCCN2CCOCC2)c1 | 7.87 µM
COc1cccc(/C=N/NC(=O)CSc2cccc3cccnc23)c1 | 5.46 µM
Cc1nc(COC(=O)c2cc(O)c3ccccc3c2O)cs1 | 3.52 µM
COc1cc(O)c(C(=O)O)c(-c2cc(O)c(O)cc2C)c1 | 3.75 µM
O=C1NC(=O)C(=Cc2ccc(-c3ccccc3[N+](=O)[O-])o2)C(=O)N1 | 10.9 µM
CN=c1nc(-c2ccccc2)n(-c2ccccc2)s1 | 4.82 µM
O=C(CNC(=O)c1cccs1)OCC(=O)c1ccc([N+](=O)[O-])cc1 | 13.9 µM
COc1cc(-c2nnc3n2N=C(c2ccccc2)CS3)cc(OC)c1OC | 3.88 µM
O=C(CSc1nc2ccccc2[nH]1)NC1CCCc2ccccc21 (centres undefined) | 13.4 µM
CC(=O)OCC1(C)CN(c2ccccc2)NC1=O (centres undefined) | 5.19 µM

Compound | IC50
CCOc1ccccc1NC(=O)CCCc1nc2ccccc2c(=O)[nH]1 | 7.4 µM
Cc1ccc(/C=C/C(=O)NCc2ccc(S(N)(=O)=O)cc2)o1 | 5.78 µM
CCN(CC)c1ccc(C(=C2C=CC(=[N+](CC)CC)C=C2)c2ccccc2)cc1 | 11.7 µM
O=c1c2cc([N+](=O)[O-])ccc2sn1-c1ccccc1 | 5.27 µM
O=c1[nH]c2ccc(NCc3ccccc3OCc3ccc(Cl)cc3)cc2[nH]1 | > 80 µM (inactive)
Cc1ccc(NNS(=O)(=O)c2ccc(C)cc2)cc1 | 12.6 µM
CC1=CC(C)(C)Nc2ccc(OC(=O)CN3C(=O)c4cccc5cccc(c45)C3=O)cc21 | 6.28 µM
[O-]/[N+](=C\c1ccco1)c1ccc(Cl)cc1 | 1.39 µM
Cc1nnc(N/N=C/c2ccc(-c3ccccc3F)o2)n1N | 16.9 µM
CN(C)c1ccc(C=c2c3ccccc3n3c2c2ccccc2[n+]3C)cc1 | 16 µM
N#Cc1ccc2sn(-c3ccccc3)c(=O)c2c1 | 3.47 µM
ClC(Cl)(c1nnnn1-c1ccccc1)c1nnnn1-c1ccccc1 | 3.8 µM
C[c-]1[c-](C)[c-](C)[c-](C)[c-]1C.[Fe].c1cc2nccc(N3CCCC3)[c-]2c1 (centres undefined) | inactive
O=C(COc1ccccc1F)OCC(=O)c1ccc([N+](=O)[O-])cc1 | 12.4 µM
O=C1C=CC2=C3c4cc(O)c(O)cc4CC3(O)COC2=C1O (centres undefined) | 6.49 µM
CCN1CCCC1CNC(=O)c1ccc2c(c1)NC(=O)/C(=C\c1ccc(C)cc1)S2 (centres undefined) | 3.16 µM
CCc1cc(-c2n[nH]c(C)c2-c2nc3ccccc3n2C)c(O)cc1O | inactive
O=C1Nc2cc(C(=O)NCCCN3CCCC3)ccc2S/C1=C/c1cccc(Cl)c1 | 17.9 µM
CCc1nnc(NC(=O)c2ccc(Cl)nc2)s1 | 15.5 µM
O=C1C(=Cc2cccc(O)c2O)SC(=S)N1CCCN1CCOCC1 | 14.1 µM
COc1cc(CNc2ccc(N3CCCC3)cc2)cc(Cl)c1OC | 3.64 µM
Cc1c(C(=O)N(Cc2ccccc2Cl)C2CCS(=O)(=O)C2)oc2ccccc12 (centres undefined) | 4.36 µM
